Values joined by “and” are separate entries in the source; they are usually repeats but may differ in a detail not shown here. Identical values can stand only once. Like-named read-outs stand apart in the source and are kept apart here.
Tests used:
[1] = biological target: T1, spinach Rubisco (Spinacia oleracea, UniProt P00875); experiment: Radiolabelled [3H]-(±)-ABA binding assay (saturation and competition); set-up: Commercially available Rubisco from spinach (Sigma-Aldrich); catalogue # R8000; purchased Sigma-Aldrich R8000; conditions: 25 nM [3H]-(±)-ABA
Protocol: A fresh aliquot of this Rubisco was subsequently dissolved in binding buffer (50 mM bicine, 15 mM MgCl2, 20 mM NaCl, pH 7.9) and placed on ice. The total volume for each assay sample was 30 μL. Protein solution (30 μg protein) was mixed with [^3H]-(±)-ABA (specific activity 37 Ci mmol^-1 radiolabelled: non-radiolabelled ratio 1.8:1) at the indicated concentrations in the presence and absence of 500 μM (+)-ABA, incubated at RT for 30 minutes. Samples (15 μL) from each reaction were transferred into SPN columns (G-biosciences), to which 100 μL of cold OrgoSol^TM buffer (chilled at -20°C) was added. The columns were spun at 10,000 x g for 10 s and the wash repeated once. The matrix of each SPN column was then removed and placed in scintillation vials containing Aqasol^TM scintillation fluid and soaked for at least 24 hours prior to counting radioactivity using a Beckman Coulter Multi-Purpose Scintillation Counter. Control samples not containing the protein, but treated with [^3H]-(±)-ABA, were also prepared and values subtracted from experimental samples. Signal corresponding to specific [^3H]-(±)-ABA binding was calculated from the difference between samples with [^3H]-(±)-ABA and those containing 1000-fold excess of non-radiolabelled (+)-ABA. Each sample was replicated 5–10 times and readings averaged. Competition was performed as described above, with the concentration of [^3H]-(±)-ABA at 25 nM in all samples, and non-radiolabeled (+)-ABA added at the indicated concentrations. The same procedure was applied using non-radiolabeled (-)-ABA, PA (phaseic acid), and trans-ABA. Values obtained for the same experiment washed with a 10,000 fold excess of unlabelled (±)-ABA were subtracted to account for any non-specific binding.

[2] = biological target: non-activated Rubisco; set-up: method as in PMID 6417133; conditions: non-activated Rubisco ref 13; read-out: KD, radiolabelled binding assay; cited from earlier work
[3] = biological target: non-activated Rubisco; set-up: method as in earlier work; conditions: 1 unit / mg ref 49, read-out: Kd by ITC; cited from earlier work
[4] = test system: activated Rubisco; conditions: read-out: Km, activated Rubisco-RuBP complex; activated Rubisco ref 13; cited from earlier work
[5] = biological target: T1, spinach Rubisco; experiment: Isothermal titration calorimetry; conditions: for stoichiometry (n) by ITC: 20°C, Independent binding model
[6] = biological target: ABA-receptor (PYL5); conditions: PYL5 ref 48; read-out: Kd by ITC; cited from earlier work
[7] = biological target: T1, spinach Rubisco; experiment: Rubisco activation (carbamylation), initial rate analysis with non-activated enzyme; type: biochemical; set-up: Commercially available Rubisco from spinach (Sigma-Aldrich); catalogue # R8000; purchased Sigma-Aldrich R8000
Protocol: Commercially available Rubisco from spinach (Sigma-Aldrich; catalogue # R8000; S1 Fig; specific activity 0.05 units / mg) was dissolved in a buffer containing 15 mM MgCl2 and 25 mM NaHCO3 at pH 8.0 for activation. Each assay (total volume, 1.0 mL) contained 50 mM Bicine (pH 8.0), 15 mM MgCl2, 10 mM NaCl, 5 mm DTT, 5 mM phosphocreatine, 5 mM ATP, 5 mM phosphoenolpyruvate, and 25 mM NaHCO3. This mixture was prepared before each set of experiments. Five minutes before initiating the reaction with the addition of activated Rubisco, the following were added: RuBP at the indicated concentrations), 0.4 mM NADH, 20 units mL-^-1 of glyceraldehyde-3-phosphate dehydrogenase, 20 units mL-^-1 of 3-phosphoglycerate kinase, and 2 units mL^-1 of creatine phosphokinase. Following the addition of activated Rubisco to a final concentration of 0.3 mg mL^-1, the NADH concentration was measured spectrophotometrically (λ = 340 nm) at 5 s intervals for 5 min. Absorbance values were converted to NADH concentrations using an extinction coefficient of 6.22 mM^-1. Reaction rates were evaluated from the slope of absorbance vs. time curves and plotted against concentration of RuBP. […] The non-activated Rubisco was then pre-incubated on ice for at least 10 minutes with or without the indicated concentrations of (+)-ABA, and the reactions initiated and monitored as described above. […]

Compound: CC1=CC(=O)CC(C)(C)[C@]1(O)/C=C/C(C)=C\C(=O)O [(-)-ABA]
- Competition: displacement of [3H]-(±)-ABA by non-radiolabeled compound [1]: equally effective as competitors

Compound: CC(=C/C(=O)O)/C=C/[C@]1(O)[C@@]2(C)CO[C@]1(C)CC(=O)C2 [PA, phaseic acid]
- Competition: displacement of [3H]-(±)-ABA by non-radiolabeled compound [1]: ineffective as competitors

Compound: O=C(COP(=O)(O)O)[C@H](O)[C@H](O)COP(=O)(O)O [RuBP, ribulose-1,5-bisphosphate]
- Kd [2]: 21 nM
- Kd [3]: 300 nM
- Km [4]: 21 µM
- Kd [5]: 31400 nM
- stoichiometry (n) by ITC [5]: 2.5

Compound: CC1=CC(=O)CC(C)(C)[C@@]1(O)/C=C/C(C)=C/C(=O)O [trans-(+)-ABA]
- Competition: displacement of [3H]-(±)-ABA by non-radiolabeled compound [1]: ineffective as competitors

Compound: Abscisic acid [(+)-ABA]
- Kd [6]: 1200 nM
- stoichiometry (n) by ITC [5]: 19.9 and 19
- Competition: displacement of [3H]-(±)-ABA by non-radiolabeled compound [1]: equally effective as competitors
- effect on initial rate (activation) ([7]; 100-250 μM (+)-ABA, 7 mM NaHCO3, S3 Fig, no effect on equilibrium rate (catalysis)): inhibitory effect
- potency on Rubisco activation versus Rubisco catalysis ([7]; ratio of Ki values): more than 10 fold

Reference: PMC4510133 (PLoS ONE, 2015)
